Source: patent publication US20170216240A1, “METHODS FOR MODULATING IKS CHANNEL ACTIVITY” (UNIVERSITY OF MIAMI, priority 2014, published 2017)

Molecular target: T1, Kv7.1/KCNE1 (Homo sapiens, UniProt P51787)
T1 construct: expressed in transfected cells; host or cells: Xenopus laevis oocytes (cRNA co-injection)
Test: G(V) shift of Kv7.1 co-expressed with KCNE1 in Xenopus oocytes, two-electrode voltage-clamp
Type: cell-based
Conditions: 70 μM, pH 7.4; for ΔV1/2 ± SEM (G(V) shift): Kv7.1/E1
Description: cDNAs encoding human Kv7.1 (GEnBAnk Acc. No. NM_000218) and KCNE1 (NM_000219) were subcloned into the expression vectors pGEM or pXOOM, containing the 5′- and 3′-untranslated regions for Xenopus laevis β-globin as well as a poly-A segment (Jespersen et al., Biotechniques 32, 536-538, 540 (2002)). The truncated KCNE1 construct KCNE1ΔC was constructed by introducing a Stop codon at position 67 using Quikchange site-directed mutagenesis kit (Qiagen). The construct was fully sequenced to ensure proper mutation and absence of unwanted mutations (sequencing by Genewiz). The concatemers E1-Kv7.1-Kv7.1 and E1-Kv7.1 were provided by Dr. R. S. Kass at Columbia University, and can be prepared as described in Chan et al. Journal of General Physiology 132(2), 135-144, (2012)). The E1-Kv7.1 construct was made by linking the C-terminus of KCNE1 to the N-terminus of KCNQ1. The E1-Kv7.1-Kv7.1 construct was made by digesting the E1-Kv7.1 and a Kv7.1-Kv7.1 dimer with Xho1 and inserting the 2-kb fragment from the Kv7.1-Kv7.1 dimer digest into the cut KCNE1-Kv7.1 construct. The DNA encoding E1-Kv7.1-Kv7.1 and E1-Kv7.1 were in the pGEM vector and contained mutations to make the constructs suitable for voltage-clamp fluorometry recordings (Wang et al., J Biol Chem 273, 34069-34074 (1998)). The original KCNE1 and Kv7.1 sequences were therefore removed, one at a time, from the pGEM vector using different restriction enzymes (New England Biolabs). Sequences were separated using gel electrophoresis and harvested using Qiagen gel extraction kit. Corresponding wild type sequences were ligated into the construct using T4 Ligase (New England Biolabs). To ensure correct sequence the constructs were sequenced (Genewiz) and tested with different restriction enzymes in combination with gel electrophoresis to measure length and conformation of the gene. cRNA for injection of all constructs was prepared from linearized DNA using the T7 mMessage mMachine transcription kit (Ambion) according to the manufactures instructions. RNA quality was checked by gel electrophoresis, and RNA concentrations were quantified by UV spectroscopy.
Xenopus laevis oocytes were isolated and maintained (Bentzen, B. H. et al. Neuropharmacology 51, 1068-1077 (2006)). Approximately 50 nl cRNA (50 ng Kv7.1, KCNE1-Kv7.1-Kv7.1 or KCNE1-Kv7.1 alternatively 25 ng Kv7.1 together with 8 ng KCNE1 or KCNE1ΔC) was injected into each oocyte using a Nanojet microinjector (Drummond). Electrophysiological experiments were made 2-5 days after injection. Currents were measured at room temperature with the two-electrode voltage-clamp technique (CA-1B Dagan amplifier). Currents were sampled at 1-3.3 kHz, filtered at 500 Hz, and not leakage corrected. […] A control solution containing (in mM): 88 NaCl, 1 KCl, 15 HEPES, 0.4 CaCl2, and 0.8 MgCl2 was used. NaOH was added to adjust pH to 7.4, yielding a final sodium concentration of about 100 mM. The holding voltage was generally set to −80 mV. Activation curves were generally elicited by stepping to test voltages between −110 and +60 mV (2-4 s durations and 10 mV increments) followed by a tail voltage of −30 mV. For recordings of Kv7.1 at pH 9 and pH 10, the holding voltage was set to more negative voltages because the largest DHA-induced shifts induced channel opening already at −80 mV. […] Therefore, in arachidonyl amine experiments a brief hyperpolarizing pulse of 50 ms to −120 mV was introduced between the test voltage and the tail voltage to relief the channels from inactivation.
Test compounds were dissolved in 99.5% ethanol to a concentration of 100 mM and stored at −20° C. (Börjesson et al., Biophys J 95, 2242-2253 (2008); Börjesson et al., Biophys J 98, 396-403 (2010)). Shortly before experiments, test compounds were diluted in control solution to the desired test concentration. Pure control solution was added to the bath using a gravity-driven perfusion system. […]

ΔV1/2 ± SEM (G(V) shift): about −30 mV | ΔV1/2 ± SEM (G(V) shift) (listed as N-arachidonoyl taurine): about −30 mV | ΔV1/2 ± SEM (G(V) shift) (listed as N—AT): −27.0 ± 2.5 mV | G(V) shift of a representative cell (control curve shifted) (Kv7.1/KCNE1): −24 mV
Structure (SMILES): CCCCC/C=C\C/C=C\C/C=C\C/C=C\CCCC(=O)NCCS(=O)(=O)O [N-AT, N-arachidonoyl taurine]
